Experimental data taken from ChEMBL document CHEMBL1131922, “Synthesis and biological evaluation of cryptophycin analogs with substitution at C-6 (fragment C region)” (Bioorg Med Chem Lett, 1999).

Tested on: CCRF-CEM
Test: In vitro cytotoxicity against human leukemia CCRF-CEM cell line
Assay type: functional, cell-based

Compound	IC50 [nM]
CCCC1(CCC)CNC(=O)[C@@H](Cc2ccc(OC)c(Cl)c2)NC(=O)/C=C/C[C@@H]([C@H](C)[C@@H](O)[C@@H](Cl)c2ccccc2)OC(=O)[C@H](CC(C)C)OC1=O	8.7
CCC1(CC)CNC(=O)[C@@H](Cc2ccc(OC)c(Cl)c2)NC(=O)/C=C/C[C@@H]([C@H](C)[C@@H](O)[C@@H](Cl)c2ccccc2)OC(=O)[C@H](CC(C)C)OC1=O	1.6
COc1ccc(C[C@H]2NC(=O)/C=C/C[C@@H]([C@H](C)[C@H]3O[C@@H]3c3ccccc3)OC(=O)[C@H](CC(C)C)OC(=O)C3(CC3)CNC2=O)cc1Cl	0.16
COc1ccc(C[C@H]2NC(=O)/C=C/C[C@@H]([C@H](C)[C@@H](O)[C@@H](Cl)c3ccccc3)OC(=O)[C@H](CC(C)C)OC(=O)C3(CC3)CNC2=O)cc1Cl	0.014
COc1ccc(C[C@H]2NC(=O)/C=C/C[C@@H]([C@H](C)[C@H]3O[C@@H]3c3ccccc3)OC(=O)[C@H](CC(C)C)OC(=O)C(C)(C)CNC2=O)cc1Cl [CRYPTOPHYCIN 52]	0.02
COc1ccc(C[C@H]2NC(=O)/C=C/C[C@@H]([C@H](C)[C@@H](O)[C@@H](Cl)c3ccccc3)OC(=O)[C@H](CC(C)C)OC(=O)C3(CCCC3)CNC2=O)cc1Cl	0.4
CCC1(CC)CNC(=O)[C@@H](Cc2ccc(OC)c(Cl)c2)NC(=O)/C=C/C[C@@H]([C@H](C)[C@H]2O[C@@H]2c2ccccc2)OC(=O)[C@H](CC(C)C)OC1=O	1.1
COc1ccc(C[C@H]2NC(=O)/C=C/C[C@@H]([C@H](C)[C@@H](O)[C@@H](Cl)c3ccccc3)OC(=O)[C@H](CC(C)C)OC(=O)C3(CCCCC3)CNC2=O)cc1Cl	110
COc1ccc(C[C@H]2NC(=O)/C=C/C[C@@H]([C@H](C)[C@@H](O)[C@@H](Cl)c3ccccc3)OC(=O)[C@H](CC(C)C)NC(=O)C3(CC3)CNC2=O)cc1Cl	0.01
COc1ccc(C[C@H]2NC(=O)/C=C/C[C@@H]([C@H](C)[C@H]3O[C@@H]3c3ccccc3)OC(=O)[C@H](CC(C)C)OC(=O)C3(CCCCC3)CNC2=O)cc1Cl	63
CCCC1(CCC)CNC(=O)[C@@H](Cc2ccc(OC)c(Cl)c2)NC(=O)/C=C/C[C@@H]([C@H](C)[C@H]2O[C@@H]2c2ccccc2)OC(=O)[C@H](CC(C)C)OC1=O	8.5
COc1ccc(C[C@H]2NC(=O)/C=C/C[C@@H]([C@H](C)[C@@H](O)[C@@H](Cl)c3ccccc3)OC(=O)[C@H](CC(C)C)OC(=O)C(C)(C)CNC2=O)cc1Cl	0.05
COc1ccc(C[C@H]2NC(=O)/C=C/C[C@@H]([C@H](C)[C@H]3O[C@@H]3c3ccccc3)OC(=O)[C@H](CC(C)C)OC(=O)C3(CCCC3)CNC2=O)cc1Cl	0.3
COc1ccc(C[C@H]2NC(=O)/C=C/C[C@@H]([C@H](C)[C@@H](O)[C@@H](Cl)c3ccccc3)OC(=O)[C@H](CC(C)C)NC(=O)C(C)(C)CNC2=O)cc1Cl	0.016
